Results taken from patent US9067974B2, “Polymyxin derivatives and uses thereof” (priority 2006, dated 2015).

Experiments:
[1] = tested on: E. coli IH3080 (K1:O18); assay: Well diffusion growth inhibition on LB agar plates (direct antibacterial activity); type: cell-based, Escherichia coli
Procedure: Peptides synthesized in Example 1, all carrying at least two (2) but not more than three (3) positive charges, were studied for their ability to inhibit the growth of E. coli. This was tested employing LB agar (LB Agar Lennox, Difco, BD, Sparks, Md., U.S.A) plates. The indicator organism E. coli IH3080 (K1:O18) was an encapsulated strain originally isolated from a neonate suffering from meningitis (Vaara et al. 1984) and obtained from National Public Health Institute, Helsinki, Finland.
(§1) From an overnight-grown culture of IH3080 on LB agar, a suspension of approx. 10^8 cells/ml was prepared in 0.9% NaCl. Aliquots of this suspension were then pipetted on the agar plates and the plates were gently shaken to spread the suspension evenly on the entire surface of the plate. Thereafter, the unabsorbed part of the suspension was removed by using a Pasteur pipette. After the surface had dried, small wells (diameter, 2 mm) were drilled on the plates (five wells per plate) by using a sterile sharp-edged narrow metal tube, single-use pipette tip, and vacuum suction. […] Controls included 0.9% NaCl solution without the compound to be tested. The plates were then incubated for 18 h at 37° C. whereafter the diameters of growth inhibition zones around each well were measured; the diameter of the well itself was not reduced. Finally, the diameters were converted to surface areas of growth inhibition (in square mm).

[2] = tested on: Acinetobacter baumannii ATCC 19606; assay: as above; type: cell-based; conditions: A. baumannii ATCC 19606
Procedure: (§2) From an overnight-grown culture of IH3080 on LB agar, a suspension of approx. 10^8 cells/ml was prepared in 0.9% NaCl. Aliquots of this suspension were then pipetted on the agar plates and the plates were gently shaken to spread the suspension evenly on the entire surface of the plate. Thereafter, the unabsorbed part of the suspension was removed by using a Pasteur pipette. After the surface had dried, small wells (diameter, 2 mm) were drilled on the plates (five wells per plate) by using a sterile sharp-edged narrow metal tube, single-use pipette tip, and vacuum suction. Samples (4 μl and 10 μl) of the peptide solution in 0.9% NaCl (at concentrations of 1 μg/ml and 0.1 μg/ml) were then pipetted to the wells and the sample fluids were allowed to absorb. Controls included 0.9% NaCl solution without the compound to be tested. The plates were then incubated for 18 h at 37° C. whereafter the diameters of growth inhibition zones around each well were measured; the diameter of the well itself was not reduced. Finally, the diameters were converted to surface areas of growth inhibition (in square mm).
(§3) Direct antibacterial activity of twelve NAB compounds against Acinetobacter baumannii ATCC 19606 and Pseudomonas aeruginosa ATCC 27853 was tested by using the susceptibility determination method described in Example 2. Five compounds (NAB7062, NAB734, NAB737, NAB739, and NAB740) had notable activity against A. baumannii. […] The antibacterial activity of NAB739 and NAB740 were as strong as or even stronger than that of polymyxin B.

[3] = tested on: Pseudomonas aeruginosa ATCC 27853; assay: as above; type: cell-based; conditions: Ps. aeruginosa ATCC 27853
Procedure: as §2, §3

[4] = tested on: E. coli ATCC25922; assay: as above; type: cell-based, Escherichia coli
Procedure: as §1
(§4) The susceptibility of eleven Gram-negative bacterial strains (nine different species) to NAB734 and polymyxin B was compared by using the susceptibility determination method described in Example 2. The strains included those belonging to the species of Serratia marcescens and Proteus mirabilis, both species generally known to be resistant to polymyxin. Furthermore, the susceptibility determination was also performed by using the Gram-positive bacterium, Staphylococcus aureus, also generally known to be polymyxin-resistant. Ten of the strains originated from ATCC (American Type Culture Collection, Manassas, Va., U.S.A.), and one from CCUG (Culture Collection of University of Gothenburg, Sweden). The source of E. coli IH3080 has been described in Example 2. Polymyxin B sulfate was from Sigma-Aldrich (St. Louis, Mo., USA).

[5] = tested on: K. pneumoniae ATCC13883; assay: as above; type: cell-based, Klebsiella pneumoniae
Procedure: as §2, §4

[6] = tested on: K. pneumoniae CCUG45421; assay: as above; type: cell-based, Klebsiella pneumoniae
Procedure: as §1, §4

[7] = tested on: K. oxytoca ATCC13182; assay: as above; type: cell-based, Klebsiella oxytoca
Procedure: as §2, §4

[8] = tested on: E. cloacae ATCC23355; assay: as above; type: cell-based, Enterobacter cloacae
Procedure: as §2, §4

[9] = tested on: C. freundii ATCC8090; assay: as above; type: cell-based, Citrobacter freundii
Procedure: as §2, §4

[10] = tested on: S. marcescens ATCC8100; assay: as above; type: cell-based, Serratia marcescens
Procedure: as §2, §4

[11] = tested on: P. mirabilis ATCC29906; assay: as above; type: cell-based, Proteus mirabilis
Procedure: as §2, §4

[12] = tested on: S. aureus ATCC 25923; assay: as above; type: cell-based, Staphylococcus aureus
Procedure: as §1, §4

[13] = tested on: E. coli IH3080; assay: Sensitization to rifampin: well diffusion growth inhibition on LB plates containing rifampin; type: cell-based, Escherichia coli; conditions: 4 μg of compound
Procedure: as §1

[14] = tested on: A. baumannii ATCC 19606; assay: as above; type: cell-based, Acinetobacter baumannii; conditions: 4 μg of compound
[15] = tested on: Ps. aeruginosa ATCC 27853; assay: as above; type: cell-based, Pseudomonas aeruginosa; conditions: 4 μg of compound

Substance	Antibacterial activity (growth inhibition area around a well) ([1]; 4 μg of compound per well)	Antibacterial activity (growth inhibition area around a well) ([1]; 10 μg of compound per well)	Antibacterial activity (growth inhibition area around a well) ([2]; 4 μg per well)	Antibacterial activity (growth inhibition area around a well) ([2]; 10 μg per well)	Antibacterial activity (growth inhibition area around a well) ([3]; 4 μg per well)	Antibacterial activity (growth inhibition area around a well) ([3]; 10 μg per well)	Antibacterial activity in the presence of rifampin (growth inhibition area around a well) ([13]; rifampin 0 μg/ml)	Antibacterial activity in the presence of rifampin (growth inhibition area around a well) ([13]; rifampin 0.1 μg/ml)	Antibacterial activity in the presence of rifampin (growth inhibition area around a well) ([13]; rifampin 1.0 μg/ml)	Antibacterial activity in the presence of rifampin (growth inhibition area around a well) ([14]; rifampin 0 μg/ml)	Antibacterial activity in the presence of rifampin (growth inhibition area around a well) ([14]; rifampin 0.1 μg/ml)	Antibacterial activity in the presence of rifampin (growth inhibition area around a well) ([14]; rifampin 0.3 μg/ml)	Antibacterial activity in the presence of rifampin (growth inhibition area around a well) ([15]; rifampin 0 μg/ml)	Antibacterial activity in the presence of rifampin (growth inhibition area around a well) ([15]; rifampin 0.1 μg/ml)	Antibacterial activity in the presence of rifampin (growth inhibition area around a well) ([15]; rifampin 0.3 μg/ml)	other results
Polymyxin B sulfate [reference compound]	95 square millimeters	133 square millimeters	113 square millimeters	154 square millimeters	95 square millimeters	133 square millimeters										Antibacterial activity (growth inhibition area around a well) ([4]; 4 μg per well): 95 square millimeters; Antibacterial activity (growth inhibition area around a well) ([4]; 10 μg per well): 133 square millimeters; Antibacterial activity (growth inhibition area around a well) ([5]; 4 μg per well): 79 square millimeters; Antibacterial activity (growth inhibition area around a well) ([5]; 10 μg per well): 113 square millimeters; Antibacterial activity (growth inhibition area around a well) ([6]; 4 μg per well): 95 square millimeters; Antibacterial activity (growth inhibition area around a well) ([6]; 10 μg per well): 133 square millimeters; Antibacterial activity (growth inhibition area around a well) ([7]; 4 μg per well): 79 square millimeters; Antibacterial activity (growth inhibition area around a well) ([7]; 10 μg per well): 104 square millimeters; Antibacterial activity (growth inhibition area around a well) ([8]; 4 μg per well): 95 square millimeters; Antibacterial activity (growth inhibition area around a well) ([8]; 10 μg per well): 143 square millimeters; Antibacterial activity (growth inhibition area around a well) ([9]; 4 μg per well): 95 square millimeters; Antibacterial activity (growth inhibition area around a well) ([9]; 10 μg per well): 154 square millimeters; Antibacterial activity (growth inhibition area around a well) ([10]; 4 μg per well): 0 square millimeters; Antibacterial activity (growth inhibition area around a well) ([10]; 10 μg per well): 0 square millimeters; Antibacterial activity (growth inhibition area around a well) ([11]; 4 μg per well): 0 square millimeters; Antibacterial activity (growth inhibition area around a well) ([11]; 10 μg per well): 0 square millimeters; Antibacterial activity (growth inhibition area around a well) ([12]; 4 μg per well): 0 square millimeters; Antibacterial activity (growth inhibition area around a well) ([12]; 10 μg per well): 0 square millimeters
OA-Thr-Dab-cy[Dab-Dab-DPhe-Leu-Dab-Abu-Thr-] [NAB 717]	0 square millimeters	0 square millimeters	0 square millimeters	0 square millimeters	0 square millimeters	0 square millimeters	0 square millimeters	71 square millimeters	95 square millimeters	0 square millimeters	0 square millimeters	50 square millimeters	0 square millimeters	0 square millimeters	0 square millimeters	
DA-Thr-DSer-cy[Dab-Dab-DPhe-Leu-Dab-Dab-Thr-] [NAB 740]	95 square millimeters	133 square millimeters	133 square millimeters	201 square millimeters	64 square millimeters	133 square millimeters	95 square millimeters	95 square millimeters	95 square millimeters	133 square millimeters	154 square millimeters	154 square millimeters	64 square millimeters	64 square millimeters	64 square millimeters	
OA-Thr-DThr-cy[Dab-Dab-DPhe-Thr-Dab-Dab-Thr-] [NAB 737]	133 square millimeters	201 square millimeters	38 square millimeters	79 square millimeters	0 square millimeters	28 square millimeters	133 square millimeters	177 square millimeters	201 square millimeters	38 square millimeters	201 square millimeters	283 square millimeters	0 square millimeters	20 square millimeters	20 square millimeters	
OA-Thr-DAla-cy[Dab-Dab-DPhe-Thr-Dab-Dab-Thr-] [NAB 738]	0 square millimeters	64 square millimeters	0 square millimeters	0 square millimeters	0 square millimeters	0 square millimeters	0 square millimeters	133 square millimeters	177 square millimeters	0 square millimeters	95 square millimeters	154 square millimeters	0 square millimeters	13 square millimeters	13 square millimeters	
